Key:
Colo205 cells = assay: MTT antiproliferative assay, sensitive cells; assay type: cell-based, human; conditions: for IC50: Homo sapiens, COLO 205, sensitive Colo205, MTT, 72 h, mean ± SD; for SI (selectivity index) C/A: IC50 MRC-5 / IC50 Colo205
Protocol: (§1) The human colon adenocarcinoma cell lines Colo205 doxorubicin-sensitive (CCL-222, ATCC, Manassas, VA, USA) and the resistant Colo320/MDR-LRP expressing P-gp were purchased from LGC Promochem (Teddington, UK). The MRC-5 human embryonal lung fibroblast cell line (CCL-171, ATCC) was purchased from Sigma-Aldrich (Merck KGaA, Darmstadt, Germany). The human colon adenocarcinoma cells (Colo205 and Colo320) were cultured in an RPMI 1640 medium supplemented with 10% fetal bovine serum (FBS), 2 mM L-glutamine, 1 mM Na-pyruvate, and 100 mM HEPES. The semi-adherent human colon cancer cells were detached with a trypsin-Versene (EDTA) solution for 5 min at 37 °C. The MRC-5 human embryonal lung fibroblast cells were cultured in EMEM containing 4.5 g/L of glucose and supplemented with a non-essential amino acid mixture, a selection of vitamins, and 10% FBS. The cell lines were incubated at 37 °C, 5% CO2, and 95% air atmosphere.
(§2) The antiproliferative effect of the compounds was tested in decreasing serial dilutions of compounds (starting with 100 µM, then two-fold serial dilution) on human cell lines (Colo205, Colo320, and MRC-5) in 96-well flat-bottomed microtiter plates. Firstly, the compounds were diluted in 100 µL of the medium, and then 6 × 10^3 cells (Colo205 and Colo320), in 100 µL of medium, were added to each well, excluding the medium control wells. The MRC-5 adherent cell line was seeded in the EMEM medium for at least 4 h before the assay. The two-fold serial dilutions of the compounds were made in a separate plate (100–0.19 μM) and then transferred to the plates containing the adherent corresponding cell line. Culture plates were incubated at 37 °C for 72 h, and at the end of the incubation period, 20 μL of MTT (thiazolyl blue tetrazolium bromide) solution (from a 5 mg/mL stock solution) was added to each well and incubated for an additional 4 h. Then, 100 μL of sodium dodecyl sulfate (SDS) solution (10% SDS in 0.01 M HCl) was added to each well, and the plates were further incubated at 37 °C overnight in a CO2 incubator. Cell growth was determined by measuring the optical density (OD) at 540/630 nm with a Multiscan EX ELISA reader (Thermo Labsystems, Cheshire, WA, USA). […] IC50 values and the standard deviation (SD) of triplicate experiments were calculated by using GraphPad Prism 5 software for Windows. Doxorubicin (2 mg/mL, Teva Pharmaceuticals, Budapest, Hungary) was used as a positive control and the vehicle DMSO as the negative control. (1) IC50=[ODsample−ODmedium control/ODcell control−ODmedium control]×100
(§3) The relative resistance (RR) was calculated as the ratio of the IC50 value in the resistant cancer cells and the IC50 in the sensitive cancer cell lines. The selectivity indexes (SI) were calculated as the ratio of the IC50 values in the non-tumor cells and the IC50 in the cancer cell lines. The activity of the compounds toward cancer cells is considered strongly selective if the selectivity index (SI) value is higher than 6, moderately selective if 3 < SI < 6, slightly selective if 1 < SI < 3, and non-selective if SI is lower than 1.

Colo320 cells [1] = assay: Checkerboard drug combination assay with doxorubicin; assay type: cell-based, human; conditions: for Type of interaction: Colo320; for CI at IC50 (combination index): Colo320, 50% growth inhibition
Protocol: The interaction of lycorine (1) and some selected derivatives (2, 5, 9, 13, 16, 19, 25, and 26) in combination with the chemotherapeutic drug doxorubicin was performed by the checkerboard assay, a widely used technique for assessing drug interactions, in resistant human Colo320 colon adenocarcinoma cells. The type of drug–drug interaction was evaluated by using the Chou and Talalay method for drug combination and expressed using the combination index (CI) values, and therefore evaluated as synergism (CI < 1), additive (CI = 1), or antagonist (CI > 1).
Drug combination interactions between the compounds and the chemotherapeutic drug doxorubicin were assessed by the checkboard microplate assay on the resistant Colo320, expressing the P-gp transporter. Doxorubicin was serially diluted in the horizontal direction in 100 µL, starting with 8.6 µM, and the compounds were subsequently diluted in the vertical direction in 50 µL. The starting concentration was determined based on the IC50 values. The cells were resuspended in a culture medium and distributed into each well in 50 µL, containing 6 × 10^3 cells, to a final volume of 200 µL per well. The plates were incubated for 72 h at 37 °C in a CO2 incubator, and the cell growth was determined by the MTT staining method, as described previously. Drug interactions were evaluated using CompuSyn software to plot 4 or 5 data points for each ratio (ref software). The results were expressed in terms of combination index (CI) values of 50% growth inhibition, in which a CI value close to 1 indicates additivity, while a CI < 1 is defined as synergy, and a CI > 1 as antagonism.

Colo320 cells [2] = assay: MTT antiproliferative assay, resistant cells; assay type: cell-based, human; conditions: for IC50: Homo sapiens, COLO 320, resistant Colo320, MTT, 72 h, mean ± SD, read-out: IC50 Colo320 (B); for SI (selectivity index) C/B: IC50 MRC-5 / IC50 Colo320
Protocol: as §1, §2, §3

MRC-5 cells = assay: MTT antiproliferative assay, normal lung fibroblasts; assay type: cell-based; conditions: Homo sapiens, normal embryonal lung fibroblasts, 72 h, mean ± SD, read-out: IC50 MCR-5 (C)
Protocol: as §1, §2, §3

[3] = biological target: T1, recombinant human P-gp membranes (Homo sapiens, UniProt P08183); assay: P-gp-Glo ATPase activity assay; assay type: biochemical; conditions: 25 µM, basal activity = 100%
T1 construct: purchased Promega
T1 sequence (P08183 whole entry): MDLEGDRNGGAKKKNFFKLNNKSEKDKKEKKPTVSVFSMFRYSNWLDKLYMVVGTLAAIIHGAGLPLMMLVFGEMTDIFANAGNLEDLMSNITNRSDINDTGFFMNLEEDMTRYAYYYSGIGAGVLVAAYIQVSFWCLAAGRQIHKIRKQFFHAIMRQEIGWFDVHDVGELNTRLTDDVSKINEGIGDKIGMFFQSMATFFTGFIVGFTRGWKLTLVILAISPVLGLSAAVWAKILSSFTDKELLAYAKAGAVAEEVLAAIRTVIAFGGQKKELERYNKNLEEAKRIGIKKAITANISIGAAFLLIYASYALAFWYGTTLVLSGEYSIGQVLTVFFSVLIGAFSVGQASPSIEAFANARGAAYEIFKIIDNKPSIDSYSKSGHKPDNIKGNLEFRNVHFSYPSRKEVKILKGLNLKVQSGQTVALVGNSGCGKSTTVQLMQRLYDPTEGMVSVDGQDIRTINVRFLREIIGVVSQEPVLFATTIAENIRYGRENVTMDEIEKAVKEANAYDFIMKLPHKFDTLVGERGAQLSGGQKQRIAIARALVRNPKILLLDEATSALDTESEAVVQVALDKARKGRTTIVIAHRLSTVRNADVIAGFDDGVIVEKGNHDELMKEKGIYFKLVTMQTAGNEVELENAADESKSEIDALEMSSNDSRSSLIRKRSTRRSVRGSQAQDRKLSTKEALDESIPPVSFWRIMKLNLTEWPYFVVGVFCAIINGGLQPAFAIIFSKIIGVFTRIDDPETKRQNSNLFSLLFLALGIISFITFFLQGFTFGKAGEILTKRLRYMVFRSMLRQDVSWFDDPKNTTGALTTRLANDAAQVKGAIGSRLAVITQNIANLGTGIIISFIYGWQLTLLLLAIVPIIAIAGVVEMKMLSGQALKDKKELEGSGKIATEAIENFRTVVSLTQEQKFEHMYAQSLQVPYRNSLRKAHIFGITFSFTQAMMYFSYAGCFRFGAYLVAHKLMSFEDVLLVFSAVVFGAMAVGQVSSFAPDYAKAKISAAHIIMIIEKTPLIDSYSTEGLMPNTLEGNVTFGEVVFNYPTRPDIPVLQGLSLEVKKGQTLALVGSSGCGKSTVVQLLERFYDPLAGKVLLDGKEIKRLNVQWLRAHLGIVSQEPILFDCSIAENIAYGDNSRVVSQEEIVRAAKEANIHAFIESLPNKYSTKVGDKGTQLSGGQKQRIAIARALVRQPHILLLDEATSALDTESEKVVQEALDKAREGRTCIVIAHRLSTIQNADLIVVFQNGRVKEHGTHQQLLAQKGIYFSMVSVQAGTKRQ
Protocol: To evaluate the type of interaction between selected compounds and P-gp, namely to determine if they interacted as stimulators or inhibitors, the ATPase activity assay (P-gp.Glo^TM) was performed, using human P-gp membranes. This assay is based on the ATP consumption necessary for the efflux, obtained from ATP hydrolysis by light-generating firefly luciferase reaction. […] Vanadate is a selective and strong P-gp inhibitor. Therefore, the compounds can be classified as inhibitors or stimulators/substrates by comparing P-gp ATPase activity with the basal activity; stimulators give results higher than 100%, while inhibitors result below 100% of the basal activity. […] The results are presented in Figure 2 as the difference between the luciferase luminescence observed when treated with the tested compounds and with vanadate and compared with the basal activity (100%).
The P-glycoprotein ATPase assay was assessed using the P-gp-Glo^TM Assay System (Promega, WI, USA). The assay was performed according to the manufacturer’s instructions. Briefly, 20 µL of recombinant human P-gp membranes (1.25 mg/mL), expressing high levels of human P-gp, were incubated in 20 µL of P-gp-Glo^TM assay buffer for 5 min at 37 °C. […] The reaction was initiated by adding 10 µL of 25 mM MgATP, and incubated at 37 °C for 40 min. The reaction was stopped after adding 50 µL of ATP Detection Reagent, and the samples and controls were incubated at room temperature for 20 min. The emitted luciferase-generated luminescent signal was measured in a CLARIOstar Plus plate reader (BMG Labtech, Ortenberg, Germany) at 580 nm. The relative ATPase activity was calculated based on the ratio between the luminescence measured of the P-gp ATPase activity of each compound and the basal P-gp ATPase activity according to Equation (3): (3) Relative ATPase activity= Lumtreated−Lumuntreated /LumNa3VO4/Lumuntreated

IC50 (Colo205 cells) [µM]	CI at IC50 (combination index) (Colo320 cells [1])	IC50 (Colo320 cells [2]) [µM]	Effect on basal P-gp ATPase activity [3]	Structure (SMILES)	SI (selectivity index) C/A (Colo205 cells)	Type of interaction (Colo320 cells [1])	SI (selectivity index) C/B (Colo320 cells [2])	RR (relative resistance ratio) B/A (Colo320 cells [2]; IC50 resistant Colo320 / IC50 sensitive Colo205)	IC50 (MRC-5 cells) [µM]
47.7 ± 1.35	0.50	3.14 ± 0.05	decreased the basal activity	O=C(NCCc1ccc(Cl)cc1)OC1C=C2CCN3Cc4cc5c(cc4C(C1OC(=O)NCCc1ccc(Cl)cc1)C23)OCO5 (centres unmarked) [Compound 25, Lycorine 1,2-diyl bis[(4-chlorophenethyl)carbamate]]	0.099	Synergism	1.51	0.065	4.75 ± 0.08
53.9 ± 0.98	0.88	37.9 ± 1.37	decreased the basal activity	O=C(NCCc1ccc(Cl)cc1)OC1C=C2CCN3Cc4cc5c(cc4C(C1O)C23)OCO5 (centres unmarked) [Compound 26, Lycorine 2-yl (4-chlorophenethyl) carbamate]	0.96	Slight synergism	1.37		52.1 ± 3.09
